From US10131664B2 (Celgene Quanticel Research, Inc., priority 2013, dated 2018)

Columns and labels:
full-length human LSD1 = full-length human LSD1 (Homo sapiens (Human), UniProt O60341); experiment: In vitro enzyme inhibition assay LSD-1 (TR-FRET); assay type: biochemical; settings: TR-FRET, 0.1 nM LSD1, 50 nM H3K4me1-biotin peptide, 2 μM FAD, pH7.3; read-out: LSD1 IC50
Method: This assay determines the ability of a test compound to inhibit LSD1 demethylase activity.
The enzymatic assay of LSD1 activity is based on Time Resolved-Fluorescence Resonance Energy Transfer (TR-FRET) detection.
The ability of the compounds disclosed herein to inhibit LSD1 activity was quantified and the respective IC50 value was determined. Table 5 provides the IC50 values of various substituted heterocyclic compounds disclosed herein.

THP-1 (AML) cells = experiment: LSD1 CD11b cellular assay (flow cytometry); assay type: cell-based; settings: Homo sapiens, 96 h; CD11b expression in THP-1 (AML) cells, flow cytometry, 4 days incubation; read-out: Cellular IC50
Procedure, shortened: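 THP-1 AML cells treated with serially diluted compound (0.2% DMSO final) for 4 days at 37 °C, 5% CO2. CD11b expression measured by flow cytometry with DAPI staining; IC50 derived from percent CD11b-positive cells versus inhibitor concentration.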

Compound	IC50 (full-length human LSD1)	IC50 (THP-1 (AML) cells)
Cc1c2cc(-c3cnc(N4CCC(N)CC4)nc3-c3ccc(C#N)c(F)c3)ccc2nn1C [Example 92, 4-[2-(4-aminopiperidin-1-yl)-5-(2,3-dimethylindazol-5-yl)pyrimidin-4-yl]-2-fluorobenzonitrile]	< 0.1 µM	< 0.1 µM
Cc1ccc(-c2cnc(N3CC[C@@H]4CNC[C@@H]4CC3)nc2-c2ccc(C#N)cc2)cc1 [Example 23, 4-{2-[(3aR,8aS)-decahydropyrro[3,4-d]azepin-6-yl]-5-(4-methylphenyl)pyrimidin-4-yl}benzonitrile]	< 0.1 µM	< 0.1 µM
Cn1ncc2cc(-c3cnc(N4CCC(N)C(O)C4)nc3-c3ccc(C#N)c(F)c3)ccc21 (stereo not shown) [Example 101, 4-[2-(4-amino-3-hydroxypiperidin-1-yl)-5-(1-methylindazol-5-yl)pyrimidin-4-yl]-2-fluorobenzonitrile]	< 0.1 µM	< 0.1 µM
N#Cc1ccc(-c2nc(N3CCC4(CCNC4)CC3)ncc2-c2cnn(CC(F)(F)F)c2)cc1 [Example 62, 4-[2-(2,8-diazaspiro[4.5]decan-8-yl)-5-[1-(2,2,2-trifluoroethyl)pyrazol-4-yl]pyrimidin-4-yl]benzonitrile]	< 0.1 µM	< 0.1 µM
COc1ccc(-c2nc3ccn(C[C@H]4CCNC4)c3cc2-c2ccc(C#N)c(F)c2)cc1 [Example 54]	< 0.1 µM	< 0.1 µM
Cn1nnc2cc(-c3cnc(N4CCC(N)CC4)nc3-c3ccc(C#N)cc3)ccc21 [Example 72, 4-[2-(4-aminopiperidin-1-yl)-5-(1-methylbenzotriazol-5-yl)pyrimidin-4-yl]benzonitrile]	< 0.1 µM	< 0.1 µM
Cn1nncc1C#Cc1cnc(N2CCC(N)CC2)nc1-c1ccc(C#N)c(F)c1 [Example 98]	< 0.1 µM	0.1 to 1 µM

Further lines, results first:

IC50 (full-length human LSD1)	IC50 (THP-1 (AML) cells)	Compound
< 0.1 µM	< 0.1 µM	Cn1cnc2cc(-c3cnc(N4CCC(N)CC4)nc3-c3ccc(C#N)cc3)c(F)cc21 [Example 125, 4-[2-(4-aminopiperidin-1-yl)-5-(6-fluoro-1-methylbenzimidazol-5-yl)pyrimidin-4-yl]benzonitrile]
< 0.1 µM	< 0.1 µM	CNc1nc(N2CCC(N)CC2)nc(-c2ccc(C#N)c(F)c2)c1-c1ccc2nn(C)cc2c1 [Example 160, 4-[2-(4-aminopiperidin-1-yl)-5-(2-methyl-2H-indazol-5-yl)-6-(methylamino)-pyrimidin-4-yl]-2-fluorobenzonitrile]
< 0.1 µM	< 0.1 µM	Cn1cc2cc(-c3cnc(N4CCC(N)C(O)C4)nc3-c3ccc(C#N)c(F)c3)ccc2n1 (stereo not shown) [Example 107, 4-[2-(4-amino-3-hydroxypiperidin-1-yl)-5-(2-methylindazol-5-yl)pyrimidin-4-yl]-2-fluorobenzonitrile]
< 0.1 µM	< 0.1 µM	Cn1cc2ccc(-c3cnc(N4CCC(N)CC4)nc3-c3ccc(C#N)cc3)cc2n1 [Example 129, 4-[2-(4-aminopiperidin-1-yl)-5-(2-methylindazol-6-yl)pyrimidin-4-yl]benzonitrile]
< 0.1 µM	< 0.1 µM	COc1nc(N2CCCNCC2)nc(-c2ccc(C#N)c(F)c2)c1-c1ccc2nn(C)cc2c1 [Example 148, 4-[2-(1,4-diazepan-1-yl)-6-methoxy-5-(2-methyl-2H-indazol-5-yl)pyrimidin-4-yl]-2-fluorobenzonitrile]
< 0.1 µM	< 0.1 µM	CNc1nc(N2CCC(N)CC2)nc(-c2ccc(C#N)cc2)c1-c1cnc2c(c1)nnn2C [Example 176, 4-[2-(4-aminopiperidin-1-yl)-5-{3-methyl-3H-[1,2,3]triazolo[4,5-b]pyridin-6-yl}-6-(methylamino)pyrimidin-4-yl]benzonitrile]
< 0.1 µM	< 0.1 µM	CNc1nc(N2CCC(N)CC2)nc(-c2ccc(C#N)cc2)c1-c1ccc2c(cnn2C)c1 [Example 164, 4-[2-(4-aminopiperidin-1-yl)-5-(1-methyl-1H-indazol-5-yl)-6-(methylamino)pyrimidin-4-yl]benzonitrile]
